Experimental data reported in patent US5075303A, “Pyridine derivatives” (John Wyeth & Brother Limited, priority 1989, dated 1991).

How the values were obtained:
5-HT1 receptor = biological target: T1, 5-HT1 receptor (Rattus norvegicus, UniProt P19327); assay: 5-HT1 receptor agonist activity in vivo: 5-HT related behaviour in rats following i.v. administration; details: iv, calculated by the method of Kimball et al
T1 construct: 5-HT related behaviour in rats following i.v. administration; from tissue; host or cells: living rat (in vivo test, endogenous receptor)
T1 sequence (P19327 1-422): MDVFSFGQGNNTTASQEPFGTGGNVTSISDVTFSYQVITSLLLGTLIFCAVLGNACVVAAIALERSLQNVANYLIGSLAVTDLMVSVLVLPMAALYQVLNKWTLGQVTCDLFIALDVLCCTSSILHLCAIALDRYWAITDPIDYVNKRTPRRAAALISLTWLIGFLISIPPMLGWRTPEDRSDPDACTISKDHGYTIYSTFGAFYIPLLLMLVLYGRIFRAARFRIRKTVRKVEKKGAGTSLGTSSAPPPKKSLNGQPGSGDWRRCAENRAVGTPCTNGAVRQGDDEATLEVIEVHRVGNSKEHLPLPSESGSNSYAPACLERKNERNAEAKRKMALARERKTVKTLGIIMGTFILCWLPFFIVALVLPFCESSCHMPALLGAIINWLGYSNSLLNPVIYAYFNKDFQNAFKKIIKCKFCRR
Description: The compounds are evaluated for 5-HT1 receptor agonist activity in vivo by a method involving the assessment of 5-HT related behaviour in rats following i.v. administration of the test compound (M D Tricklebank et al, European Journal of Pharmacol, 1985, 106, 271-282).

5HT1A receptor = biological target: T2, 5HT1A receptor (Cavia porcellus, UniProt A0A286Y074); assay: antagonism of 8-hydroxy-2-(di-n-propylamino)tetralin in the guinea-pig ileum in vitro; format: biochemical
T2 construct: in the guinea-pig ileum in vitro; from tissue; host or cells: guinea-pig ileum
T2 sequence (A0A286Y074 1-421): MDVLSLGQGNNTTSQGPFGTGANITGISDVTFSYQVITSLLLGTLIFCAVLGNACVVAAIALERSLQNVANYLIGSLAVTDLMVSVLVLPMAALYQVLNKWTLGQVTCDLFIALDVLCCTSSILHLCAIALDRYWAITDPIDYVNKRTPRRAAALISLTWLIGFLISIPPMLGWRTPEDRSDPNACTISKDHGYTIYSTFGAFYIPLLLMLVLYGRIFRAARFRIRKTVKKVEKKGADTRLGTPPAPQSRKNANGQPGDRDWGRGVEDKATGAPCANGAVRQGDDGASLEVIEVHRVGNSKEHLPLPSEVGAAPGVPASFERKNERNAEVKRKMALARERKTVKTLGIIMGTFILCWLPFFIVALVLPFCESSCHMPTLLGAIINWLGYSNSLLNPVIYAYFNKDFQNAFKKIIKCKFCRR

5-HT1A receptor = biological target: T3, 5-HT1A receptor (Rattus norvegicus, UniProt P19327); assay: 5-HT1A receptor binding activity in rat hippocampal membrane homogenate
T3 construct: rat hippocampal membrane homogenate; from tissue; host or cells: rat hippocampus (membrane homogenate)
T3 sequence (P19327 1-422): T1 sequence (P19327 1-422)
Description: The compounds of the invention were tested for 5 HT1A receptor binding activity in rat hippocampal membrane homogenate by the method of B S Alexander and M D Wood, J Pharm Pharmacol, 1988, 40, 888-891.

Row | Compound | ED50 (5-HT1 receptor) | pA2 (5HT1A receptor) | IC50 (5-HT1A receptor)
1 | CN(CCCCN1C(=O)CC2(CCCC2)CC1=O)C1CCc2cccnc2C1 (stereo not drawn) [Example 16, 8-{4-[N-(5,6,7,8-Tetrahydroquinolin-7 yl) N-methyl]aminobutyl}-8-azaspiro[4.5]decan 7,9-dione] | 0.81 mg/kg | 7.7 | 0.026 µM
2 | CCCN(CCNC(=O)c1ccc(F)cc1)C1CCc2cccnc2C1 (stereo not drawn) [Example 19, 4-Fluoro-N-[2-[N --(5,6,7,8-tetrahydroquinoin-7 yl)-N'-propyl]aminoethyl}benzamide] | 0.52 mg/kg | – | 0.009 µM
3 | CN(CCNC(=O)Cc1c(F)cccc1F)C1CCc2cccnc2C1 (stereo not drawn) [Example 35, N-{2-[N'-(5,6,7,8-Tetrahydroquinolin-7 yl)-N'-methyl]aminoethyl}-2,6-difluorophenylacetamide] | – | – | 0.131 µM
4 | CCCN(CC1COc2ccccc2O1)C1CCc2cccnc2C1 (stereo not drawn) [Example 15] | – | – | 0.042 µM
5 | c1cnc2c(c1)CCC(N1CCC1)C2 (stereo not drawn) [Example 50, 7-Azetidino-5,6,7,8-tetrahydroquinoline] | 1.1 mg/kg | – | 0.136 µM
6 | CN(C)C1CCc2cccnc2C1 (stereo not drawn) [Example 3, 5,6,7,8-Tetrahydro-7-dimethylaminoquinoline] | – | – | 0.137 µM
7 | CCCN(CCC)C1CCc2cccnc2C1 (stereo not drawn) [Example 12, 5,6,7,8-Tetrahydro-7--(1,1-dipropylamino)quinoline] | 0.62 mg/kg | – | 0.138 µM
8 | CN(CCC1COc2ccccc2O1)C1CCc2cccnc2C1 (stereo not drawn) [Example 20, 7-Amino-5,6,7,8-tetrahydro N-{2 [2 (2,3 dihydro-1,4-benzodioxinyl)]ethyl}-N-methylquinoline] | – | – | 0.068 µM
9 | c1cnc2c(c1)CCC(N1CCCC1)C2 (stereo not drawn) [Example 38, 5,6,7,8-Tetrahydro 7-pyrrolidinoquinoline] | 0.57 mg/kg | – | 0.055 µM
